Data published in paper PMC7754465, “Multiparameter Kinetic Analysis for Covalent Fragment Optimization by Using Quantitative Irreversible Tethering (qIT)” (Chembiochem, 2020).
“Also recorded” adds a separate entry of the source. Where two headings read alike, the source gives them in different places.

Columns and labels:
[1] = target: T1, Cdk2(ES) = Cdk2(F80C,C177A) (Homo sapiens, UniProt P24941, C177A/F80C); test: quantitative irreversible tethering (qIT): rate of cysteine modification of Cdk2(ES); assay type: binding; details: for rate enhancement factor (REF): rate with Cdk2(ES) relative to rate with GSH, thiol 5 μM
T1 construct: GST (N, cleaved yes); made in house; host or cells: E. coli Tuner(DE3)
Protocol: Figure 2 Comparison of previous and current applications of Quantitative irreversible tethering (qIT). a) Overview of rate determination. A cysteine‐containing biomolecule is treated with covalent fragments under pseudo‐first‐order conditions. Reaction progress is followed by discrete measurement of free cysteine concentration by using the fluorogenic probe CPM, and rate constants (k obs) are derived from exponential regression analysis. b) Comparison of the reactivity profile of each fragment with the POI and GSH typically classes them as unreactive, reactive but non‐selective or reactive and selective. c) Quantification of kinetic POI/GSH selectivity facilitates hit identification. d) The observed rate of reaction between the POI and hit fragment is determined at a range of ligand concentrations by using qIT. Subsequent hyperbolic regression analysis is used to derive K i and k inact to facilitate comprehensive covSAR analysis.
Therefore, we set out to develop novel classes of electrophile sensitive kinase inhibitors using a covalent fragment approach. Accordingly, we screened a 138‐member library of diverse cysteine‐reactive fragments at 500 μM against Cdk2(ES) and GSH by using the qIT platform and monitored the kinetics of cysteine‐modification over 24 hours. […] Using three standard deviations over the geometric mean REF as the statistical cut‐off for defining hit fragments (REF >27.9) yielded two acrylamide fragments, tetrahydroquinoline 1 (REF=81) and pyrimidine S1 (REF=64) for further investigation (Figures 3c and S2). […]
D. Rate determination by qIT
Reaction-plate setup: Each well of a 96-well PCR plate was charged with 60–100 µL of target thiol (GSH or protein, 10 µM) and 4% w/v TCEP-agarose beads in 100 mM phosphate buffer (pH 7.5 or 8) and cooled to 4 °C. Reactions were started by addition of an equal volume of pre-cooled electrophile solution (1 mM, 2% DMSO) in 0.1 M phosphate buffer (final concentra-tion: thiol = 5 µM, electrophile = 0.5 mM, 2% w/v TCEP-agarose beads), with a minimum of 4 wells per plate used as DMSO/thiol only controls. After mixing, TCEP-agarose was pelleted by centrifugation (1,300 rpm, 1 min) and the plate incu-bated at 4 °C. CPM Quench: At a series of time points (typically around 0.25, 0.5, 1, 2, 6, 24, 48, 72 and 120 hours after reac-tion initiation), 3 µL aliquots of each reaction were quenched into a 384-well fluorescence plate (Corning – black, NBS) where each well was charged with 27 µL of CPM solution (1.39 µM) in 100 mM phosphate buffer (pH 7.5) (final concentration: thiol = 0.5 µM, CPM = 1.25 µM). Quenching was typically performed in duplicate and fluorescence plates were incubated at room temperature for 60 minutes before fluorescence intensity (excitation/emission: 384/470 nm) was measured on an EnVisionTM plate reader. Analysis: All analysis was performed using Prism 8.0 software (GraphPad). For each time point, the fluorescence of each reaction was normalized relative Cdk2(ES)/GSH only control = maximum signal, DMSO only = minimum signal. The normalized fluorescence for each reaction was plotted against time. A one phase exponential decay was fitted to each plot (Constraints: Y(0) > 0.8; 0 < plateau = 0), yielding a pseudo first-order rate constant.
Cdk2 mutations were introduced by PCR and cloned into pGEX6P1 Cdk2 (552), a gift from Jonathon Pines (Addgene plasmid # 61845) used to express GST-Cdk2(WT). GST-Cdk2(ES) = GST-Cdk2(F80C,C177A). All constructs were verified by se-quencing. pGEX6P1 cyclin A2 (amino acids 173-432) was generated by PCR and restriction digestion. GST-CAK1 was con-structed by PCR amplification of S.cerevisiae genomic DNA and the product cloned into pKEG-KG. All protein expression was performed using an adapted autoinduction protocol:[8] Plasmids were transformed into E. coli Tuner(DE3) and cultures grown in autoinduction media at 37 °C until OD600 = 0.9. The cultures were then incubated at 18 °C for a further 40 hours before […]

Cdk2(ES) = target: T2, Cdk2(ES) (Homo sapiens, UniProt P24941, C177A/F80C); test: intact-protein mass spectrometry of covalent modification; assay type: binding; details: 0.5 mM acrylamide; 2 h for acrylamide 1
T2 construct: GST (N, cleaved yes); made in house; host or cells: E. coli Tuner(DE3)
Excerpt: To orthogonally validate the results from the qIT assay, we undertook a mass spectrometric study to obtain a direct measurement of both the extent and site of covalent fragment modification. […] To confirm C80 as the site of modification, the 1‐Cdk2(ES) complex was digested with trypsin and the resulting peptides analysed by MALDI mass spectrometry. […] Tandem mass spectrometric analysis of this ion enabled confirmatory sequencing of the peptide and unambiguous assignment of C80 as the site of modification (Figure 4b).
See High-Throughput Kinetic Analysis for Target-Directed Covalent Ligand Discovery for full library details.4 In brief, Acryla-mide fragments were synthesized from amine precursors; 14,000 primary and secondary amines were selected from Enamine’s commercial collection with molecular weight < 250 Da, from which 235 unique Bemis-Murcko frameworks were generated.[5] […] The physiochemical properties of the final library were calculated using DataWarrior[6] and found to broadly comply with the ‘Rule of 3’ guidelines. […]
Reaction-plate setup: Each well of a 96-well PCR plate was charged with 60–100 µL of target thiol (GSH or protein, 10 µM) and 4% w/v TCEP-agarose beads in 100 mM phosphate buffer (pH 7.5 or 8) and cooled to 4 °C. […] For each time point, the fluorescence of each reaction was normalized relative Cdk2(ES)/GSH only control = maximum signal, DMSO only = minimum signal. […]

[2] = fragment 0.5 mM, Cdk2(ES) 5 μM, read-out: Cdk2(ES): kobs/[I]

Row | SMILES | rate enhancement factor (REF) ([1]; fragment 0.5 mM) | covalent modification of Cdk2(ES) (Cdk2(ES)) | kinact/KI at 500 µM [1, 2] [M⁻¹ s⁻¹] | kinact/KI at 500 µM ([1]; Cdk2(ES) (5 μM) + 6 (500 μM), Figure 6c, read-out: kobs/[I] with Cdk2(ES)) [M⁻¹ s⁻¹] | covalent SAR by REF-based qIT analysis ([1]; compared with acrylamide 1 or parent analogue) | rate of reaction with Cdk2(ES) relative to acrylamide 1 ([1]; qIT)
1 | C=CC(=O)Nc1ccc(-c2ncccn2)cc1 [S1] | 64 | complete mono‐modification |  |  |  | 
2 | C=CC(=O)N1CCCc2cc(C(=O)OC)ccc21 [compound 1] | 81 | fully modifies; also recorded: complete mono‐modification | 1.31 |  |  | 
3 | C=CC(=O)N1CCN(CC)c2ccccc21 [compound 6] |  |  | 0.1 | 0.105 | maintained a similar REF | ten times more slowly than acrylamide 1
